# Reference: ChEMBL document CHEMBL4828721, “Substituted dienes prepared from betulinic acid - Synthesis, cytotoxicity, mechanism of action, and pharmacological parameters” (Eur J Med Chem, 2021)
# Tested on: BJ
# Assay: Cytotoxicity against human BJ cells assessed as reduction in cell viability measured after 72 hrs by MTS assay
# Assay type: cell-based
# Settings: not given
row,Compound,IC50 [µM]
1,C=C(/C=C/c1cccc(C#N)c1)[C@@H]1CC[C@]2(C(=O)O)CC[C@]3(C)[C@H](CC[C@@H]4[C@@]5(C)CC[C@H](O)C(C)(C)[C@@H]5CC[C@]43C)[C@@H]12,> 50
2,C=C(/C=C/c1ccccc1Cl)[C@@H]1CC[C@]2(C(=O)O)CC[C@]3(C)[C@H](CC[C@@H]4[C@@]5(C)CC[C@H](O)C(C)(C)[C@@H]5CC[C@]43C)[C@@H]12,42.3
3,C=C(/C=C/c1cc(OC)cc(OC)c1)[C@@H]1CC[C@]2(C(=O)O)CC[C@]3(C)[C@H](CC[C@@H]4[C@@]5(C)CC[C@H](O)C(C)(C)[C@@H]5CC[C@]43C)[C@@H]12,47.6

# Tested on: MRC5
# Assay: Cytotoxicity against human MRC5 cells assessed as reduction in cell viability measured after 72 hrs by MTS assay
# Assay type: cell-based
# Settings: MRC5, 72 h
row,Compound,IC50 [µM]
1,C=C(/C=C/c1cccc(C#N)c1)[C@@H]1CC[C@]2(C(=O)O)CC[C@]3(C)[C@H](CC[C@@H]4[C@@]5(C)CC[C@H](O)C(C)(C)[C@@H]5CC[C@]43C)[C@@H]12,> 50
2,C=C(/C=C/c1ccccc1Cl)[C@@H]1CC[C@]2(C(=O)O)CC[C@]3(C)[C@H](CC[C@@H]4[C@@]5(C)CC[C@H](O)C(C)(C)[C@@H]5CC[C@]43C)[C@@H]12,32.6
3,C=C(/C=C/c1cc(OC)cc(OC)c1)[C@@H]1CC[C@]2(C(=O)O)CC[C@]3(C)[C@H](CC[C@@H]4[C@@]5(C)CC[C@H](O)C(C)(C)[C@@H]5CC[C@]43C)[C@@H]12,29.2

# Tested on: CEM-DNR
# Assay: Cytotoxicity against daunorubicin resistant human CEM-DNR cells assessed as reduction in cell viability measured after 72 hrs by MTS assay
# Assay type: functional, cell-based
# Settings: not given
row,Compound,IC50 [µM]
1,C=C(/C=C/c1cccc(C#N)c1)[C@@H]1CC[C@]2(C(=O)O)CC[C@]3(C)[C@H](CC[C@@H]4[C@@]5(C)CC[C@H](O)C(C)(C)[C@@H]5CC[C@]43C)[C@@H]12,21.6
2,C=C(/C=C/c1ccccc1Cl)[C@@H]1CC[C@]2(C(=O)O)CC[C@]3(C)[C@H](CC[C@@H]4[C@@]5(C)CC[C@H](O)C(C)(C)[C@@H]5CC[C@]43C)[C@@H]12,42.1
3,C=C(/C=C/c1cc(OC)cc(OC)c1)[C@@H]1CC[C@]2(C(=O)O)CC[C@]3(C)[C@H](CC[C@@H]4[C@@]5(C)CC[C@H](O)C(C)(C)[C@@H]5CC[C@]43C)[C@@H]12,13.7

# Tested on: A549
# Assay: Cytotoxicity against human A549 cells assessed as reduction in cell viability measured after 72 hrs by MTS assay
# Assay type: functional, cell-based
# Settings: A549, 72 h
row,Compound,IC50 [µM]
1,C=C(/C=C/c1cccc(C#N)c1)[C@@H]1CC[C@]2(C(=O)O)CC[C@]3(C)[C@H](CC[C@@H]4[C@@]5(C)CC[C@H](O)C(C)(C)[C@@H]5CC[C@]43C)[C@@H]12,> 50
2,C=C(/C=C/c1ccccc1Cl)[C@@H]1CC[C@]2(C(=O)O)CC[C@]3(C)[C@H](CC[C@@H]4[C@@]5(C)CC[C@H](O)C(C)(C)[C@@H]5CC[C@]43C)[C@@H]12,29.4
3,C=C(/C=C/c1cc(OC)cc(OC)c1)[C@@H]1CC[C@]2(C(=O)O)CC[C@]3(C)[C@H](CC[C@@H]4[C@@]5(C)CC[C@H](O)C(C)(C)[C@@H]5CC[C@]43C)[C@@H]12,19

# Tested on: CCRF-CEM
# Assay: Cytotoxicity against human CCRF-CEM cells assessed as reduction in cell viability measured after 72 hrs by MTS assay
# Assay type: functional, cell-based
# Settings: not given
row,Compound,IC50 [µM]
1,C=C(/C=C/c1cccc(C#N)c1)[C@@H]1CC[C@]2(C(=O)O)CC[C@]3(C)[C@H](CC[C@@H]4[C@@]5(C)CC[C@H](O)C(C)(C)[C@@H]5CC[C@]43C)[C@@H]12,12.1
2,C=C(/C=C/c1ccccc1Cl)[C@@H]1CC[C@]2(C(=O)O)CC[C@]3(C)[C@H](CC[C@@H]4[C@@]5(C)CC[C@H](O)C(C)(C)[C@@H]5CC[C@]43C)[C@@H]12,18.7
3,C=C(/C=C/c1cc(OC)cc(OC)c1)[C@@H]1CC[C@]2(C(=O)O)CC[C@]3(C)[C@H](CC[C@@H]4[C@@]5(C)CC[C@H](O)C(C)(C)[C@@H]5CC[C@]43C)[C@@H]12,10

# Tested on: not listed separately
# Assay: Cytotoxicity against human HCT116 p53-null cells assessed as reduction in cell viability measured after 72 hrs by MTS assay
# Assay type: functional, cell-based
# Settings: not given
row,Compound,IC50 [µM]
1,C=C(/C=C/c1cccc(C#N)c1)[C@@H]1CC[C@]2(C(=O)O)CC[C@]3(C)[C@H](CC[C@@H]4[C@@]5(C)CC[C@H](O)C(C)(C)[C@@H]5CC[C@]43C)[C@@H]12,29.4
2,C=C(/C=C/c1ccccc1Cl)[C@@H]1CC[C@]2(C(=O)O)CC[C@]3(C)[C@H](CC[C@@H]4[C@@]5(C)CC[C@H](O)C(C)(C)[C@@H]5CC[C@]43C)[C@@H]12,24.8
3,C=C(/C=C/c1cc(OC)cc(OC)c1)[C@@H]1CC[C@]2(C(=O)O)CC[C@]3(C)[C@H](CC[C@@H]4[C@@]5(C)CC[C@H](O)C(C)(C)[C@@H]5CC[C@]43C)[C@@H]12,20.8

# Tested on: K562
# Assay: Cytotoxicity against human K562 cells assessed as reduction in cell viability measured after 72 hrs by MTS assay
# Assay type: functional, cell-based
# Settings: K562, 72 h
row,Compound,IC50 [µM]
1,C=C(/C=C/c1cccc(C#N)c1)[C@@H]1CC[C@]2(C(=O)O)CC[C@]3(C)[C@H](CC[C@@H]4[C@@]5(C)CC[C@H](O)C(C)(C)[C@@H]5CC[C@]43C)[C@@H]12,> 50
2,C=C(/C=C/c1ccccc1Cl)[C@@H]1CC[C@]2(C(=O)O)CC[C@]3(C)[C@H](CC[C@@H]4[C@@]5(C)CC[C@H](O)C(C)(C)[C@@H]5CC[C@]43C)[C@@H]12,23.9
3,C=C(/C=C/c1cc(OC)cc(OC)c1)[C@@H]1CC[C@]2(C(=O)O)CC[C@]3(C)[C@H](CC[C@@H]4[C@@]5(C)CC[C@H](O)C(C)(C)[C@@H]5CC[C@]43C)[C@@H]12,22.2

# Tested on: HCT-116
# Assay: Cytotoxicity against human HCT-116 cells assessed as reduction in cell viability measured after 72 hrs by MTS assay
# Assay type: functional, cell-based
# Settings: HCT-116, 72 h
row,Compound,IC50 [µM]
1,C=C(/C=C/c1cccc(C#N)c1)[C@@H]1CC[C@]2(C(=O)O)CC[C@]3(C)[C@H](CC[C@@H]4[C@@]5(C)CC[C@H](O)C(C)(C)[C@@H]5CC[C@]43C)[C@@H]12,35.1
2,C=C(/C=C/c1ccccc1Cl)[C@@H]1CC[C@]2(C(=O)O)CC[C@]3(C)[C@H](CC[C@@H]4[C@@]5(C)CC[C@H](O)C(C)(C)[C@@H]5CC[C@]43C)[C@@H]12,26.6
3,C=C(/C=C/c1cc(OC)cc(OC)c1)[C@@H]1CC[C@]2(C(=O)O)CC[C@]3(C)[C@H](CC[C@@H]4[C@@]5(C)CC[C@H](O)C(C)(C)[C@@H]5CC[C@]43C)[C@@H]12,17.3

# Tested on: U2OS
# Assay: Cytotoxicity against human U2OS cells assessed as reduction in cell viability measured after 72 hrs by MTS assay
# Assay type: functional, cell-based
# Settings: not given
row,Compound,IC50 [µM]
1,C=C(/C=C/c1cccc(C#N)c1)[C@@H]1CC[C@]2(C(=O)O)CC[C@]3(C)[C@H](CC[C@@H]4[C@@]5(C)CC[C@H](O)C(C)(C)[C@@H]5CC[C@]43C)[C@@H]12,> 50
2,C=C(/C=C/c1ccccc1Cl)[C@@H]1CC[C@]2(C(=O)O)CC[C@]3(C)[C@H](CC[C@@H]4[C@@]5(C)CC[C@H](O)C(C)(C)[C@@H]5CC[C@]43C)[C@@H]12,28.1
3,C=C(/C=C/c1cc(OC)cc(OC)c1)[C@@H]1CC[C@]2(C(=O)O)CC[C@]3(C)[C@H](CC[C@@H]4[C@@]5(C)CC[C@H](O)C(C)(C)[C@@H]5CC[C@]43C)[C@@H]12,22.3

# Tested on: not listed separately
# Assay: Cytotoxicity against paclitaxel resistant human K562-Tax cells assessed as reduction in cell viability measured after 72 hrs by MTS assay
# Assay type: functional, cell-based
# Settings: not given
row,Compound,IC50 [µM]
1,C=C(/C=C/c1cccc(C#N)c1)[C@@H]1CC[C@]2(C(=O)O)CC[C@]3(C)[C@H](CC[C@@H]4[C@@]5(C)CC[C@H](O)C(C)(C)[C@@H]5CC[C@]43C)[C@@H]12,22.7
2,C=C(/C=C/c1ccccc1Cl)[C@@H]1CC[C@]2(C(=O)O)CC[C@]3(C)[C@H](CC[C@@H]4[C@@]5(C)CC[C@H](O)C(C)(C)[C@@H]5CC[C@]43C)[C@@H]12,39.3
3,C=C(/C=C/c1cc(OC)cc(OC)c1)[C@@H]1CC[C@]2(C(=O)O)CC[C@]3(C)[C@H](CC[C@@H]4[C@@]5(C)CC[C@H](O)C(C)(C)[C@@H]5CC[C@]43C)[C@@H]12,16
